Structures can show the parent of a compound that is named as a salt. Where two headings read alike, the source gives them in different places.
Key:
[1] = system: TNF-α; test: Rat assay: LPS-challenged rats, serum TNF-α by ELISA; assay type: in vivo; settings: for inhibition in vivo at 1 mg/kg: read-out: ratLPS/% Inh @1.0 (mg/kg)
[2] = molecular target: T1, human p38 kinase alpha (Homo sapiens, UniProt Q16539); test: p38 kinase in vitro assay, phosphorylation of biotinylated PHAS-I with gamma 32P-ATP; assay type: biochemical
T1 construct: The coding region of the human p38a cDNA was obtained by PCR-amplification from RNA isolated from the human monocyte cell line THP.1; GST (N); made in house; host or cells: E. coli DH10B
Outline: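 MKK6-activated human p38α phosphorylates biotinylated PHAS-I with γ-32P-ATP in 25 mM HEPES pH 7.5, 10 mM Mg acetate, 50 μM unlabeled ATP, 1% DMSO, 30 °C for 1 h or overnight. Compounds at 100–0.001 μM (10-fold steps, triplicate); substrate captured on streptavidin filter plates and counted by scintillation.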

[3] = system: human TNF; test: TNF inhibition: human whole blood assay; assay type: cell-based; settings: Homo sapiens
Procedure: Human peripheral blood is obtained in heparinized tubes. A 190 μL aliquot of blood is placed in each well of a 96 well u-bottom plate. […] After one hour of incubation at 37° C., […] of lipopolysaccharide (Salmonella typhosa, Sigma) in phosphate buffered saline is added resulting in a final concentration of […]. After four to five hours of incubation at 37° C., the supernatants are harvested and assayed at 1:10 or 1:20 dilutions for human TNF using ELISA.

[4] = Rattus norvegicus, po, 5 mpk oral gavage, 4 h before LPS challenge, read-out: Rat LPS Model % Inhibition @ dose @ predose time
[5] = read-out: P38 alpha kinase IC50
[6] = TNF production, LPS-stimulated human whole blood, read-out: Human Whole Blood IC50
[7] = Rattus norvegicus, po, 1.0 mg/kg oral gavage, 4 hours before LPS challenge
[8] = Rattus norvegicus, po, 5.0 mg/kg oral gavage, 4 hours before LPS challenge, read-out: ratLPS/% Inh @5.0 (mg/kg)
[9] = TNF production, LPS-stimulated human whole blood, read-out: HWB IC50
[10] = Rattus norvegicus, po, read-out: Rat LPS Model % Inhibition @ dose @ predose time
[11] = read-out: Human Whole Blood IC50, μM
[12] = Rattus norvegicus, po, Table 9, dose 20 mg/kg
[13] = Table 9, human whole blood, LPS, read-out: TNF Inhibition-Human Whole Blood Assay
[14] = Table 8, human whole blood, LPS, read-out: TNF Inhibition-Human Whole Blood Assay

T1 sequence (Q16539 whole entry): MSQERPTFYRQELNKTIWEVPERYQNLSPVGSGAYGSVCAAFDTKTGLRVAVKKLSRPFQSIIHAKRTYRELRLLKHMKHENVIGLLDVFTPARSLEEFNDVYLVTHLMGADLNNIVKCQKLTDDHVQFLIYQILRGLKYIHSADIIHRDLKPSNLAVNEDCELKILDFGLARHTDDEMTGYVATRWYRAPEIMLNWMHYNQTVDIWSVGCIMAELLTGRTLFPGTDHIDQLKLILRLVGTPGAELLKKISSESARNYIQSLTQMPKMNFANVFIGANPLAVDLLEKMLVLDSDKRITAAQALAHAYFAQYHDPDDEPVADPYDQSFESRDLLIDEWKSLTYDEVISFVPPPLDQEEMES

Row | Structure (SMILES) | inhibition in vivo at 5 mg/kg [1, 4] | IC50 [2, 5] | IC50 [3, 6] | other results
1 | FC(F)(F)c1cccc(-c2n[nH]c(C3CCNCC3)c2-c2ccncc2)c1 [Example C-86] | 66% | 7 nM | 0.19 µM | 
2 | CN(C)[C@H]1CC[C@@H](c2[nH]nc(-c3cccc(Cl)c3)c2-c2ccncc2)CC1 [Example C-106, 5-cis-(4-N,N-DIMETHYLAMINOCYCLOHEXYL)-4-(4-PYRIDYL)-3-(3-CHLOROPHENYL)PYRAZOLE] | 23% | 26 nM | 0.44 µM | 
3 | O=C(CO)N1CCC(c2[nH]nc(-c3cccc(Cl)c3)c2-c2ccncn2)CC1 [Example D-11, N-(2-Hydroxyacetyl)-5-(4-piperidyl)-4-(4-pyrimidyl)-3-(3-chlorophenyl)pyrazole] |  |  |  | inhibition in vivo at 1 mg/kg [1, 7]: 43%; inhibition in vivo at 5 mg/kg [1, 8]: 86%; IC50 ([2]; read-out: p38 alpha IC50): 160 nM; IC50 [3, 9]: 1.5 µM
4 | O=C([C@H](O)c1ccccc1)N1CCC(c2[nH]nc(-c3ccc(Cl)cc3)c2-c2ccncn2)CC1 [Example D-7, (R)-N-(2-Hydroxy-2-phenylacetyl)-5-(4-piperidyl)-4-(4-pyrimidyl)-3-(4-chlorophenyl)pyrazole] |  |  |  | inhibition in vivo at 5 mg/kg [1, 8]: 0%; IC50 ([2]; read-out: p38 alpha IC50): 440 nM; IC50 [3, 9]: > 25 µM
5 | O=C(CO)N1CCC(c2[nH]nc(-c3cccc(F)c3)c2-c2ccncn2)CC1 [Example D-12, N4(2Hydroxyacetyl)-5-(4-piperidyl)-4-(4-pyrimidyl)-3-(3-fluorophenyl)pyrazole] |  |  |  | inhibition in vivo at 1 mg/kg [1, 7]: 71%; inhibition in vivo at 5 mg/kg [1, 8]: 91%; IC50 ([2]; read-out: p38 alpha IC50): 820 nM; IC50 [3, 9]: 7.06 µM
6 | CC(C)(N)C(=O)NCc1[nH]nc(-c2ccc(F)cc2)c1-c1ccncc1 [Example C-120] |  | 700 nM |  | inhibition in vivo at 5 mg/kg [1, 10]: 26%; IC50 [3, 11]: 18.6 µM
7 | CC(=O)N1CCC(c2[nH]nc(-c3ccc(F)cc3)c2-c2ccncc2)CC1 [Example C-113] | 77% | 82 nM | 2.72 µM | 
8 | N=C(N)N1CCC(c2[nH]nc(-c3ccc(F)cc3)c2-c2ccncc2)CC1 [Example C-108] | 0% | 20 nM | 0.73 µM | 
9 | CN1CCC[C@@H](c2[nH]nc(-c3ccc(F)cc3)c2-c2ccncc2)C1 [Example C-128] | 63% | 90 nM | 2.22 µM | 
10 | CC(=O)N[C@H]1CC[C@@H](c2[nH]nc(-c3ccc(Cl)cc3)c2-c2ccncc2)CC1 [Example C-95, 5- cis-[4-N-(ACETYL)AMINOCYCLOHEXYL]-4-(4-PYRIDYL)-3-(4-CHLOROPHENYL)PYRAZOLE] | 32% |  | 3.91 µM | 
11 | CN(C)c1ccc(Cc2[nH]nc(-c3ccc(Cl)cc3)c2-c2ccncc2)cc1 [Example C-117] | 71% | 3420 nM | 7.26 µM | 
12 | CS(=O)(=O)N[C@H]1CC[C@@H](c2[nH]nc(-c3ccc(Cl)cc3)c2-c2ccncc2)CC1 [Example C-97, 5-cis-[4-N-(METHYLSULFONYL)AMINOCYCLOHEXYL]-4-(4-PYRIDYL)-3-(4-CHLOROPHENYL)PYRAZOLE] | 21% | 25 nM | 3.83 µM | 
13 | CN1CCC(c2[nH]nc(-c3ccc(Cl)cc3)c2-c2ccncc2)CC1 [Example C-75] | 71% | 45 nM | 0.4 µM | 
14 | CN(C)[C@H]1CC[C@@H](c2[nH]nc(-c3ccc(C(F)(F)F)cc3)c2-c2ccncc2)CC1 [Example C-102, 5-cis-(4-N,N-DIMETHYLAMINOCYCLOHEXYL)-4-(4-PYRIDYL)-3-[4-(TRIFLUOROMETHYL)PHENYL]PYRAZOLE] | 72% |  | 7.56 µM | 
15 | CN1CCC(c2[nH]nc(-c3ccc(C(F)(F)F)cc3)c2-c2ccncc2)CC1 [Example C-84, 5-(N-METHYL-4-(4-PYRIDYL)-4-(4-PYRIDYL)-3-[4-(TRIFLUOROMETHYL)PHENYL]PYRAZOLE] | 22% | 48 nM | 0.88 µM | 
16 | CN1CCC[C@H]1c1[nH]nc(-c2ccc(F)cc2)c1-c1ccncc1 [Example C-124, (S)-5-(N-METHYL-2-PYROLIDINYL)-4-(4-PYRIDYL)-3-(4-FLUOROPHENYL)PYRAZOLE] | 51% | 170 nM | 4.56 µM | 
17 | CC(=O)Nc1ccc(Cc2[nH]nc(-c3ccc(Cl)cc3)c2-c2ccncc2)cc1 [Example C-118, 5-[4-(N-ACETYL)AMINOBENZYL]-4-(4-PYRIDYL)-3-(4-CHLOROPHENYL)PYRAZOLE] | 39% | 298 nM | > 25 µM | 
18 | CC(=O)N1CCCC(c2[nH]nc(-c3ccc(F)cc3)c2-c2ccncc2)C1 (centres unmarked) [Example C-138] | 26% | 280 nM | 0.68 µM | 
19 | COCc1[nH]nc(-c2ccc(Cl)cc2)c1-c1ccncc1 [Example C-115, 5-(METHOXYMETHYL)-4-(4-PYRIDYL)-3-(4-CHLOROPHENYL)PYRAZOLE] | 39% | 42 nM | 10.2 µM | 
20 | Clc1ccc(-c2n[nH]c(C3CCNCC3)c2-c2ccncc2)cc1 [Example C-74, 5-(4-piperidyl)-4-(4-pyridyl)-3-(4-chlorophenyl)pyrazole hydrochloride] | 54% | 37 nM | 0.56 µM | 
21 | CCN1CCC(Nc2cc(-c3c[nH]nc3-c3ccc(F)cc3)ccn2)CC1 [Example A-352, N-(1-ethyl-4-piperidinyl)-4-[3-(4-fluorophenyl)-1H-pyrazol-4-yl]-2-pyridinamine] |  |  |  | inhibition in vivo at 20 mg/kg [1, 12]: 36%; IC50 [3, 13]: 9.8 µM
22 | COCC(=O)NC1CCC(c2[nH]nc(-c3ccc(Cl)cc3)c2-c2ccncc2)CC1 (stereo not drawn) [Example C-96, 5-cis-[4-N-(METHOXYACETYL)AMINOCYCLOHEXYL]-4-(4-PYRIDYL)-3-(4-CHLOROPHENYL)PYRAZOLE] | 38% |  | 2.1 µM | 
23 | N[C@H]1CC[C@@H](c2[nH]nc(-c3ccc(C(F)(F)F)cc3)c2-c2ccncc2)CC1 [Example C-101, 5-cis-(4-AMINOCYCLOHEXYL)-4-(4-PYRIDYL)-3-[4-(TRIFLUOROMETHYL)PHENYL]PYRAZOLE] | 52% |  | 3.71 µM | 
24 | CC(C)(N)C(=O)NCc1[nH]nc(-c2ccc(Cl)cc2)c1-c1ccncc1 [Example C-121] |  |  |  | inhibition in vivo at 5 mg/kg [1, 10]: 39%; IC50 [3, 11]: 15.3 µM
25 | COC(=O)N1CCN(c2[nH]nc(-c3ccc(Cl)cc3)c2-c2ccncc2)CC1 [Example A-319, methyl 4-[5-(4-chlorophenyl)-4-(4-pyridinyl)-1H-pyrazol-3-yl]-1-piperazinecarboxylate, monohydrate] |  |  |  | inhibition in vivo at 3 mg/kg ([1]; Rattus norvegicus, po, Table 8, dose 3.0 mg/kg, read-out: Rat LPS Assay % Inhibition): 62%; IC50 [3, 14]: > 25 µM
26 | OC[C@@H](Cc1ccccc1)Nc1cc(-c2c[nH]nc2-c2ccc(F)cc2)ccn1 [Example A-361, (βR)-β-[[4-[3-(4-fluorophenyl)-1H-pyrazol-4-yl]-2-pyridinyl]amino]benzene propanol] |  |  |  | inhibition in vivo at 20 mg/kg [1, 12]: 9%; IC50 [3, 13]: 1 µM
27 | O=C(CO)N1CCC(c2[nH]nc(-c3ccc(Cl)cc3)c2-c2ccncn2)CC1 [Example D-2, N-(2-Hydroxyacetyl)-5-(4-piperidyl)-4-(4-pyrimidyl)-3-(4-chlorophenyl)pyrazole hydrochloride] |  |  |  | ratLPS/% Inh @1.0 (mg/kg) ([1]; 1.0 mg/kg oral gavage, 4 hours before LPS challenge, hydrochloride): 89.0%; inhibition in vivo at 5 mg/kg [1, 8]: 95%; IC50 [3, 9]: 1.79 µM
28 | CC1CN(c2[nH]nc(-c3ccc(Cl)cc3)c2-c2ccncc2)CC(C)N1 (centres unmarked) [Example A-342, 1-[5-(4-chlorophenyl)-4-(4-pyridinyl)-1H-pyrazol-3-yl]-3,5-dimethylpiperazine] |  |  |  | inhibition in vivo at 20 mg/kg ([1]; Rattus norvegicus, po, Table 8, dose 20.0 mg/kg): 98%; IC50 [3, 14]: 0.31 µM

Source: patent publication US6525059B1, “Substituted pyrazoles as p38 kinase inhibitors” (G. D. Searle & Company, priority 1998, dated 2003)
